Format in all cases: cell-based
Assay [1] addresses T1, 5-HT2A receptor (Homo sapiens, UniProt P28223).
T1 construct: host or cells: HEK293
Nature of the assay: FLIPR Ca2+ flux functional assay, agonist activity at 5-HT2A. As to conditions: HEK293 cells, Ca2+ flux; for EC50: read-out: 5-HT2A EC50. The procedure:
(§1) Activity at 5-HT2A, 5-HT2B and 5-HT2C receptors was determined using a FLIPR Ca2+ flux assay at WuXi AppTec Co. Ltd. (Hong Kong) Discovery Biology Unit according to their standard protocols. Briefly, stably transfected cells expressing the receptor of interest (HEK293 for 5-HT2A and 5-HT2C; CHO-K1 for 5-HT2B) were grown and plated in a 384 well plate and incubated at 37° C. and 5% CO2 overnight. A 250 mM stock solution of probenecid in FLIPR calcium assay buffer (10 mL) was freshly prepared and combined with a fluorescent dye (Fluo-4 Direct) to give a final assay concentration of 2.5 mM. Reference compounds were 4-fold serially diluted and the screening compounds were 3-fold serially diluted in 100% DMSO for 10 points using Agilent Bravo, and 750 nL was added to a 384 well compound plate using Echo along with 30 μL assay buffer. The fluorescent dye was then added to the assay plate along with assay buffer to a final volume of 40 μL. The cell plate was incubated for 50 min at 37° C. and 5% CO2 and placed into the FLIPR Tetra along with the compound plate. 10 μL of references and compounds were then transferred from the compound plate into the cell plate and the fluorescent signal was read.

The target of assay [2] is T2, 5-HT2B receptor (Homo sapiens, UniProt P41595).
T2 construct: host or cells: CHO-K1
T2 sequence (P41595 whole entry): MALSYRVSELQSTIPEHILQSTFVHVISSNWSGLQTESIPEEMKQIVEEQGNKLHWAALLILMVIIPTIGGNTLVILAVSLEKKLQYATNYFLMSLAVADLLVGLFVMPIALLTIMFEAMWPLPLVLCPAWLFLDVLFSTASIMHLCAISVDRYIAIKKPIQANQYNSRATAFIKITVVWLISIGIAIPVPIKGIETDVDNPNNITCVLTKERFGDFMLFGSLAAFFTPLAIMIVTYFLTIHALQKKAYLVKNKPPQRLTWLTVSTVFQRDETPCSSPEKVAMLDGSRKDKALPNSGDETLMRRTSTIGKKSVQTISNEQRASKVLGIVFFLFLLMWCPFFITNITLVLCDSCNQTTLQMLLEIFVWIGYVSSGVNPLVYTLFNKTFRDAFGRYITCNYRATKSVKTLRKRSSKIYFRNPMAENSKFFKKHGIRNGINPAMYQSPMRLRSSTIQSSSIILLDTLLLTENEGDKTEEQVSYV
The assay is described as follows: FLIPR Ca2+ flux functional assay, agonist activity at 5-HT2B. As to conditions: CHO-K1 cells, Ca2+ flux; for EC50: read-out: 5-HT2B EC50. The method, then: as §1

For assay [3], the target named is T3, 5-HT2C receptor (Homo sapiens, UniProt P28335).
T3 construct: host or cells: HEK293
T3 sequence (P28335 33-458): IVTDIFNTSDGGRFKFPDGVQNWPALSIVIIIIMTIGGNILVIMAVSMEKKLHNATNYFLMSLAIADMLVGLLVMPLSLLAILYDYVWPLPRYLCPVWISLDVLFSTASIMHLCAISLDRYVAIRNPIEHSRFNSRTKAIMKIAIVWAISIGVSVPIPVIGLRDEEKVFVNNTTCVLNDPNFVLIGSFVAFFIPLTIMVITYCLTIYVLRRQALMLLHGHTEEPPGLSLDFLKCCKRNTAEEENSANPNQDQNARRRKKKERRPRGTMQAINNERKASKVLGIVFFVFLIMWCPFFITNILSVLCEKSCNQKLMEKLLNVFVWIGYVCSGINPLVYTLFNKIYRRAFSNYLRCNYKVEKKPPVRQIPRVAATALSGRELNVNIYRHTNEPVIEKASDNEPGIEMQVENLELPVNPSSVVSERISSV
Nature of the assay: FLIPR Ca2+ flux functional assay, agonist activity at 5-HT2C. As to conditions: HEK293 cells, Ca2+ flux; for EC50: read-out: 5-HT2C EC50. The method, then:
as §1

Each structure is given as a SMILES string.

T1 sequence (P28223 whole entry): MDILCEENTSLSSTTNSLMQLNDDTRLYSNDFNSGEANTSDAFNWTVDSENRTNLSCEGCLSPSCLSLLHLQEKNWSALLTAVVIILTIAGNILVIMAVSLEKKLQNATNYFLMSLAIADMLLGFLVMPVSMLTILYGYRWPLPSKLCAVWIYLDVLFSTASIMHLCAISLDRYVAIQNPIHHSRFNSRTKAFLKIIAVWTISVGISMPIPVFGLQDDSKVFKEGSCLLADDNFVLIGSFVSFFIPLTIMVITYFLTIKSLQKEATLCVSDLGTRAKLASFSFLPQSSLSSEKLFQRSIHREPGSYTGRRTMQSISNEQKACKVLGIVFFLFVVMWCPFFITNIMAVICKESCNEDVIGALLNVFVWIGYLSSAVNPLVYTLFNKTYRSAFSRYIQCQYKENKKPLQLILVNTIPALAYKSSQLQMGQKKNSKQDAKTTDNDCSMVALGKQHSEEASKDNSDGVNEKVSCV

`CCN(CC)CCc1c[nH]c2ccnc(OC)c12` [Example P-34, N,N-diethyl-2-(4-methoxy-1H-pyrrolo[3,2-c]pyridin-3-yl)ethan-1-amine]: the Emax in assay [1] came out at 82.6%; in assay [2], 14.7%; in assay [3], 91.7%. In addition, the EC50 in assay [1] was 150 nM; in assay [2], more than 10000 nM; in assay [3], 682 nM.

For the compound `COc1cccc2[nH]nc(CCN(C)C)c12` [Example P-55, 2-(4-methoxy-1H-indazol-3-yl)-N,N-dimethylethan-1-amine], the 50% effective concentration (EC50) was 256 nM in assay [1], more than 10000 nM in assay [2] and 367 nM in assay [3].

With `COc1ccnc2[nH]cc(CCN(C(C)C)C(C)C)c12` [Example P-27, N-isopropyl-N-(2-(4-methoxy-1H-pyrrolo[2,3-b]pyridin-3-yl)ethyl)propan-2-amine], the maximum response (Emax) worked out at 80.2% in assay [1], 35.6% in assay [2] and 0.54% in assay [3]. Moreover, the 50% effective concentration (EC50) is 857 nM in assay [1], more than 10000 nM in assay [2] and more than 10000 nM in assay [3].

For `CCN(CC)CCc1c[nH]c2ccc(OC)nc12` [Example P-10, 2-(5-Methoxy-1H-pyrrolo[3,2-b]pyridin-3-yl)-N,N-diethylethan-1-amine], the maximal effect (Emax) in assay [1] worked out at 82.8%; in assay [2], 47.1%; in assay [3] it was 99.1%. In addition, the half-maximal effective concentration (EC50) in assay [1] was 6.11 nM; in assay [2], 284 nM; in assay [3] it was 68.6 nM.

`COc1ccc2[nH]cc(CCN(C)C(C)C)c2n1` [Example P-14, N-(2-(5-methoxy-1H-pyrrolo[3,2-b]pyridin-3-yl)ethyl)-N-methylpropan-2-amine]: the figures for the Emax in assay [1], in assay [2] and in assay [3] were 78.9%, 1.06% and 98.3%, respectively. Also, the EC50 in assay [1] was 21 nM; in assay [2] it was more than 10000 nM; in assay [3], 139 nM.

Turning to `CCN(C)CCc1c[nH]c2nccc(C)c12` [Example P-31, N-ethyl-N-methyl-2-(4-methyl-1H-pyrrolo[2,3-b]pyridin-3-yl)ethan-1-amine], the maximal response (Emax) in assay [1] came out at 54.5%; in assay [2], 1.01%; in assay [3] it was 0.01%. For the same compound, the EC50 in assay [1] was 1020 nM; in assay [2], more than 10000 nM; in assay [3], more than 10000 nM.

Take `CN(C)CCc1c[nH]c2nccc(F)c12` [Example P-32, N,N-dimethyl-2-(4-fluoro-1H-pyrrolo[2,3-b]pyridin-3-yl)ethan-1-amine]: the maximal effect (Emax) amounted to 57.8% in assay [1], 0.14% in assay [2] and 0.61% in assay [3]. The EC50 is 414 nM in assay [1], more than 10000 nM in assay [2] and more than 10000 nM in assay [3].

For the compound `CCN(CC)CCc1n[nH]c2cccc(OC)c12` [Example P-42, 2-(4-methoxy-1H-indazol-3-yl)-N,N-diethylethan-1-amine], the values for the EC50 in assay [1], in assay [2] and in assay [3] were 2980 nM, more than 10000 nM and 3490 nM, respectively.

In the case of `CCCN(CCC)CCc1c[nH]c2ccc(OC)nc12` [Example P-11, 2-(5-methoxy-1H-pyrrolo[3,2-b]pyridin-3-yl)-N,N-dipropylethan-1-amine], the maximum response (Emax) in assay [1] was determined as 99.1%; in assay [2] it was 92.1%; in assay [3], 96.3%. Besides, the values for the concentration giving a half-maximal response (EC50) in assay [1], in assay [2] and in assay [3] were 4.17 nM, 52.2 nM and 91.1 nM, respectively.

In the case of `COc1nccc2[nH]cc(CCN(C)C(C)C)c12` [Example P-38, N-(2-(4-methoxy-1H-pyrrolo[3,2-c]pyridin-3-yl)ethyl)-N-methylpropan-2-amine], the results for the Emax in assay [1], in assay [2] and in assay [3] were 83.1%, 19.6% and 70.2%, respectively. In addition, the EC50 in assay [1] is 77.7 nM; in assay [2], 610 nM; in assay [3], 1920 nM.

Source of the values: US20250163044A1, “COMPOUNDS” (PSYLO PTY LTD, priority 2021, published 2025).
